Entries after “also recorded” stand apart in the source; their conditions may differ. Read-outs that look alike come from different tables or passages of the source.

The values that follow come from US6069132A, “Phosphazole compounds” (priority 1997, dated 2000).

The test system of data set [1] is adenosine deaminase (ADA). The data set is described as follows: Enzymatic hydrolysis by adenosine deaminase. It is filed as in vitro ADME, calf. The method, then: Adenosine deaminase (ADA, adenosine aminohydrolase, EC 3.5.4.4, SIGMA) from calf intestinal mucosa was prepared to give a stock of 1 mg/mL (250-280 units/mL) in pH 7.4, 0.01 M phosphate buffer. The relative rates of hydrolysis of selected compounds by ADA and characterization of the products was carried as follows. […] Fifty-microliter aliquots were taken at time intervals and hydrolysis was quenched by mixing with 0.45 mL of distilled water and then the diluted sample was heated at 95° C. for 6 min to ensure enxyme deactivation. The decrease in substrate concentration and the formation of the products was followed over time by UV-spectroscopic analysis. Adenosine was used as a control in this experiment and one unit is defined as the amount of ADA that hydrolyzes 1.0 μmol of adenosine/min at 25° C.

Data set [2] relates to MRC-5 cells. The data set is described as follows: Cytotoxicity on growing MRC-5 cells (MTS). It is filed as cell-based, human.
Data set [3] has as its system THP-1 cells. The data set is described as follows: Cytotoxicity on growing THP-1 cells (MTS assay). It is filed as cell-based, human. Particulars: 4 days (FIG. 1A). The method, then:
Cytotoxicity Analysis. The cytotoxicity of the compounds were assayed using the CellTiter 96™ Aqueous Non-Radioactive Cell Proliferation (MTS) Assay kit obtained from Promega (Madison, Wis.) following the instructions provided by the supplier. The viable cell number was determined by trypan blue staining and cells (THP-1) were resuspended in PRMI supplemented with 10% FBS (GIBCO). Eighty microliters of cell suspension (1.7×10^4cells/well) was dispensed onto a 96-well microtiter plates. At this time 20 μL of drug (or control) was added to appropriate wells. Each concentration was assayed in quadruplicate. The plates were incubated at 37° C. in a humidified 5% CO2 atmosphere for 4 days and MTS assay […] for each concentration and the data obtained was used to calculate TC50 (the concentration of the compound necessary to inhibit the cell growth by 50%) for each compound.

Data set [4] is described as follows: Viability of PBMCs exposed to test compound. Particulars: human, pbmcs, 48 h, +LPS, read-out: % Viable Cells. Format: cell-based, human.
For data set [5], the system named is PBMCs. The data set is described as follows: Viability of PBMCs exposed to test compound. Particulars: 48 hours of exposure. It is filed as cell-based, human.

As to `Nc1ncnc2pc[nH]c12` (centres unmarked) [T70241, 7-amino-1H-1,3-azaphospholo[4,5-d]pyrimidine], the “ADA substrate” value in data set [1] is given as “not a substrate for ADA”. Also, the “hydrolysis by ADA: UV spectra” value in data set [1] (up to 5 hours in presence of ADA) is reported as “remained unchanged”. Also, the “toxic effect on growing MRC-5 cells” value in data set [2] (FIG. 9A, four day period) is “slight toxic effect on growing MRC-5 cells”. Further, in data set [2] (Table 4, 50% inhibition of logphase growing cells, 5760 min), the “TC50 Growing MRC-5” value is greater than 50 µg/mL. The “effect on THP-1 growth” value in data set [3] (higher concentrations) is given as “stimulates THP-1 growth at higher concentrations”. In data set [3] (up to 1 mg/mL), the “toxic effect on THP-1 cells” value is given as “no toxic effect on the THP-1 cells”. Further, the viability at 48 h in data set [4] (10 μg/ml) came out at 104%; in data set [4] (50 μg/ml), 83%; in data set [4] (100 μg/ml), 94%; in data set [4] (250 μg/ml) it was 88%. In data set [5], the “PBMC viability / toxicity” value is “cell viability was not affected; also recorded: minimal”.
